Results published in ChEMBL document CHEMBL1201862, “PubChem BioAssay data set” (2004).
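All cell lines were grown in 96-well plates and treated with compound for 48 hours. GI50: concentration for 50% inhibition of growth.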 Activity calls are given as the source filed them. Cut-off read from the data, not from the text of the source: active = GI50 up to about 1.1 µM and inactive = higher.

Experiments:
Assay in all cases: DTP human tumour cell line panel, 48 h
[1] = test system: 786-0
[2] = test system: ACHN
[3] = test system: BT-549
[4] = test system: EKVX
[5] = test system: HCT-116
[6] = test system: HL-60
[7] = test system: Hs-578T
[8] = test system: KM12
[9] = test system: M14
[10] = test system: MCF7
[11] = test system: MDA-MB-231
[12] = test system: NCI-H460
[13] = test system: OVCAR-3
[14] = test system: SF-295
[15] = test system: SK-MEL-2
[16] = test system: SNB-19
[17] = test system: SR
[18] = test system: UACC-62
[19] = test system: HOP-62
[20] = test system: U-251

Measured: GI50

COC(=O)N1C2C(C[C@@]1(C)C(=O)OC)c1ccccc1N2S(=O)(=O)c1ccccc1 (some centres not stated)
inactive: [1] > 100 µM | [2] > 100 µM | [3] > 100 µM | [4] > 100 µM | [5] > 100 µM | [6] > 100 µM | [7] > 100 µM | [8] > 100 µM | [9] > 100 µM | [10] > 100 µM | [11] > 100 µM | [12] > 100 µM | [13] > 100 µM | [14] > 100 µM | [15] > 100 µM | [16] > 100 µM | [17] > 100 µM | [18] > 100 µM

NC(Cc1ccc(O)cn1)C(=O)NC(C(=O)O)c1ccccc1 (configuration not stated)
inactive: [1] > 100 µM | [2] > 100 µM | [3] > 100 µM | [4] > 100 µM | [5] > 100 µM | [6] > 100 µM | [19] > 100 µM | [7] > 100 µM | [8] > 100 µM | [10] > 100 µM | [11] > 100 µM | [12] > 100 µM | [13] > 100 µM | [14] > 100 µM | [16] > 100 µM | [17] > 100 µM | [20] > 100 µM

O=C(CNc1ccccc1[N+](=O)[O-])Nn1c(-c2ccccc2)nc2ccccc2c1=O
inactive: [1] 18.9 µM | [2] 22.2 µM | [3] 17.9 µM | [4] 19.6 µM | [5] 16.1 µM | [6] 31.7 µM | [19] 20.1 µM | [7] 27.4 µM | [8] > 10 µM | [9] 16.7 µM | [10] 19.1 µM | [11] 15.7 µM | [12] 20.9 µM | [13] 29.4 µM | [14] 20.6 µM | [16] 22.8 µM | [17] 18.2 µM | [20] 19.2 µM | [18] 10.7 µM

CN1N=C(c2ccccc2)C(C(c2ccccc2[N+](=O)[O-])C2C(=O)N(C)N=C2c2ccccc2)C1=O (configuration not stated)
inactive: [1] > 70 µM | [2] > 100 µM | [3] 63.4 µM | [4] > 100 µM | [5] > 78.7 µM | [6] 18.7 µM | [19] 93.1 µM | [7] > 73.1 µM | [8] > 75 µM | [9] > 100 µM | [10] 47.1 µM | [11] > 100 µM | [12] > 100 µM | [13] 44.6 µM | [14] > 100 µM | [15] 66.5 µM | [16] > 100 µM | [20] > 100 µM | [18] 61.2 µM

CC(=O)O[C@H]1C[C@@H](OC(C)=O)[C@@](C)(O)[C@@H]2[C@@H](OC(C)=O)[C@@]3(O)[C@H](/C=C(/CO)[C@H]4O[C@H]4[C@@H](OC(C)=O)[C@@]12C)OC(=O)[C@@H]3C
inactive: [1] 7.64 µM | [2] 16.3 µM | [3] > 25 µM | [4] > 25 µM | [5] 10.3 µM | [19] 7.26 µM | [7] 8.43 µM | [8] 13.5 µM | [9] 10.8 µM | [11] 7.06 µM | [12] 8.13 µM | [13] 5.51 µM | [14] 6.12 µM | [15] 6.89 µM | [16] > 25 µM | [20] 6.1 µM | [18] 7.64 µM

O=c1c(=O)c2c(Br)sc(Br)c2c1=O
inactive: [1] 22.6 µM | [2] 20.6 µM | [3] 19.4 µM | [4] 20.1 µM | [5] 20.1 µM | [19] 30.2 µM | [7] 31 µM | [8] > 100 µM | [9] 19.8 µM | [10] 20.3 µM | [12] > 100 µM | [13] 18.5 µM | [14] > 100 µM | [15] 20.8 µM | [16] 70.6 µM | [17] 20.6 µM | [20] 23.6 µM | [18] 20.1 µM

O=C(CC(=O)Nc1ccccc1)N/N=C/c1cc(/N=N/c2ccc(Br)cc2)ccc1O
inactive: [1] 4 µM | [3] > 10 µM | [4] 3.97 µM | [6] 2.44 µM | [19] 5.3 µM | [7] > 10 µM | [8] 3.58 µM | [9] 6.37 µM | [10] 2.99 µM | [11] 3.26 µM | [12] 3.28 µM | [17] 1.39 µM | [20] 3.61 µM | [18] 2.28 µM
